Measurements: US4341790A, “Pyrrolidinylalkylcarboxylic acid amide derivatives, their preparation and pharmaceutical compositions containing them” (A. Nattermann & Cie. GmbH, priority 1979, dated 1982)
“Also recorded” adds a separate entry of the source. Read-outs that look alike come from different tables or passages of the source.

Experiments:
male mice = format: in vivo
Description: (§1) 2. Prolongation of the cerebral survival time in the case of hypoxaemia caused by sub-atmospheric pressure.
(§2) This neuropathological behaviour is induced in male mice by a progressive reduction of the pressure to 26.66 kPa in an observation chamber and is used as an indicator of the cerebral hypoxia period. It ends in the death of the experimental animal.

[1] = Cerebral protection / vaso-active and metabolism-regulating properties (overall); format: in vivo, mice; conditions: in words
Experimental: The following methods have been used to investigate the pharmacodynamic properties of the compounds according to the invention:
1. Prolongation of cerebral survival time under hypoxaemia caused by NaNO2.
Starting from the results of Gibson and Blass (J. Neurochemistry 27, 1976), a cerebral hypoxia is produced in male mice by means of NaNO2 (225 mg/kg, subcutaneous). The cerebral hypoxia period is marked by a characteristic spasmodic behaviour and ends in the death of the experimental animals.
as §1, §2
3. Protection against amnesia induced by electric shock.
Starting from the results of Taber and Banuazizi (Psychopharmakologia 9, 1966), male mice are taught not to enter a certain compartment of the cage in order to avoid an electric shock. The response is extinguished by means of an electric shock administered via head electrodes (electric shock amnesia).

thrombocytes = assay: Inhibition of aggregation of thrombocytes; conditions: in words
[2] = Tranquillising properties; format: in vivo; conditions: in words
[3] = LD50 / toxicity and toleration; format: in vivo, mice; conditions: mouse, in vivo, mice
mice = assay: LD50 / toxicity and toleration; format: in vivo; conditions: in words

## C(=C\c1ccccc1)/CN1CCN(C(c2ccccc2)c2ccccc2)CC1 [Cinnarizine, cinnarizine]
Male mice; po
  Sub-atmospheric pressure hypoxaemia: -

## Cc1cccc(C)c1NC(=O)CN1CCCC1=O [Example 6, 2-Oxo-1-pyrrolidinylacetic acid, 2,6-dimethylanilide]
[1]
  activity / effectiveness (vaso-active, metabolism-regulating, cerebral protection): highly active; also recorded: excellent activity
[1]; listed as 2-Oxo-1-pyrrolidinylacetic acid-2,6-dimethylanilide
  activity / effectiveness (vaso-active, metabolism-regulating, cerebral protection): particularly effective
Male mice; po
  Sub-atmospheric pressure hypoxaemia: +
thrombocytes
  effect of inhibiting aggregation of thrombocytes: inhibiting aggregation of thrombocytes
[2]
  tranquillising properties: good tranquillising properties
[3]; iv, administered intravenously
  LD50: 421 mg/kg
[3]; po, administered orally
  LD50: 1770 mg/kg
mice
  toleration: well tolerated; also recorded: good toleration
  toxicity: very low toxicity

## CN(C)CCOC(=O)COc1ccc(Cl)cc1 [Meclofenoxate, meclofenoxate]
Male mice; po
  Sub-atmospheric pressure hypoxaemia: -

## O=C(CN1CCCC1=O)Nc1ccccc1 [PA, 2-oxo-1-pyrrolidinylacetic acid anilide, reference compound]
[1]
  activity / effectiveness (vaso-active, metabolism-regulating, cerebral protection): exhibits none of these effects
Male mice; po
  Sub-atmospheric pressure hypoxaemia: -

## COc1ccc(Cc2nccc3cc(OC)c(OC)cc23)cc1OC [Papaverine, papaverine]
Male mice; iv
  Sub-atmospheric pressure hypoxaemia: -

## NC(=O)CN1CCCC1=O [Piracetam, piracetam]
Male mice; po
  Sub-atmospheric pressure hypoxaemia: +

## CC(C)NCC(O)COc1cccc2ccccc12 (stereo not drawn) [Propranol, propranolol]
Male mice; po
  Sub-atmospheric pressure hypoxaemia: -

## Cc1ncc(CSSCc2cnc(C)c(O)c2CO)c(CO)c1O [Pyritinol, pyritinol]
Male mice; po
  Sub-atmospheric pressure hypoxaemia: -

## CC[C@]12CCCN3CCc4c(n(c5ccccc45)[C@@](O)(C(=O)OC)C1)[C@@H]32 [Vincamine, vincamine]
Male mice; po
  Sub-atmospheric pressure hypoxaemia: +
